Results taken from US20090099020A1, “Triazole-Based Fungicidal Mixtures” (BADF Aktiengesellschaft, priority 2005, published 2009).

System: Botrytis cinerea
Test: Activity against the gray mold pathogen Botrytis cinerea in the microtiter test (Botrci)
Format: cell-based
Settings: single active, day 7 after inoculation
Experimental: The expected efficacies of active compound combinations were determined using Colby's formula (Colby, S. R. “Calculating synergistic and antagonistic responses of herbicide combinations”, Weeds, 15, 20-22, 1967) and compared with the observed efficacies.
E=x+y−x·y/100 • E expected efficacy, expressed in % of the untreated control, when using the mixture of the active compounds A and B at the concentrations a and b • x efficacy, expressed in % of the untreated control, when using the active compound A at the concentration a • y efficacy, expressed in % of the untreated control, when using the active compound B at the concentration b
The active compounds were formulated separately as a stock solution having a concentration of 10 000 ppm in DMSO.
The active compound epoxiconazole was used as a commercial formulation.
Use example No. 1—Activity against the gray mold pathogen Botrytis cinerea in the microtiter test (Botrci)
The stock solution is pipetted onto a microtiter plate (MTP) and diluted to the stated active compound concentration using a malt-based aqueous nutrient medium for fungi. An aqueous spore suspension of Botrytis cinerea was then added. The plates were placed in a water vapor-saturated chamber at temperatures of 18° C. Using an absorption photometer, the MTPs were measured at 405 nm on day 7 after the inoculation. The measured parameters were compared to the growth of the active compound-free control variant and the fungus- and active compound-free blank value to determine the relative growth in % of the pathogens in the individual active compounds.
The visually determined values for the percentage of infected leaf area were initially converted into a mean value and then converted into efficacies in % of the untreated control. An efficacy of 0 means the same degree of infection as in the untreated control, an efficacy of 100 means 0% infection. The expected efficacies for active compound combinations were determined using Colby's formula (Colby, S. R. (Calculating synergistic and antagonistic responses of herbicide combinations”, Weeds, 15, pp. 20-22, 1967) and compared to the observed efficacies.

## Fc1ccc(C2(Cn3cncn3)OC2c2ccccc2Cl)cc1 (stereo not shown) [Epoxiconazole, epoxiconazole]
0.016 ppm
  Observed effect (%): 15%
0.063 ppm
  Observed effect (%): 48%

## O=c1c2cc(F)ccc2nc(-n2cncn2)n1-c1ccc(Cl)cc1Cl [Fluquinconazole, fluquinconazole]
0.004 ppm
  Observed effect (%): 0%
0.25 ppm
  Observed effect (%): 0%
